According to patent US20030165575A1, “Methods and compositions for treatment and diagnosis of alzheimer disease and other disorders” (Research Foundation for Mental Hygeine, Inc., priority 1994, published 2003):

Columns and labels:
PP-2B = target: T1, PP-2B (Bos taurus, UniProt P48452); assay: Effect of effectors on dephosphorylation of AD P-tau by PP-2B (immunoblot); type: biochemical, bovine; conditions: for Activity of PP-2B towards AD P-tau with divalent cation in the presence of Ca2+ and calmodulin: 1.0 mM CaCl2, 1.0 μM calmodulin plus 1.0 mM NiCl2, 1.0 mM MnCl2 or 10 mM MgCl2; for Activity of PP-2B towards AD P-tau with divalent cation in the presence of Ca2+ and calmodulin / Magnitude of dephosphorylation of AD P-tau by PP-2B with the cation alone compared to inclusion of Ca2+ and calmodulin: Tau-1 immunoblot; for Magnitude of dephosphorylation of AD P-tau by PP-2B with the cation alone compared to inclusion of Ca2+ and calmodulin: 1.0 mM MnCl2 or 1.0 mM NiCl2 alone; for Concentration of metal ion for maximal dephosphorylation of AD P-tau by PP-2B / Concentration of metal ion that activated the dephosphorylation of AD P-tau by PP-2B: in the presence of 1.0 mM Ca2+ and 1.0 μM calmodulin
T1 construct: PP-2B (holoezyme) was purified from bovine brain according to the method of Sharma et al; from tissue; host or cells: bovine brain
Protocol: Rabbit skeletal muscle PP-1 was purchased from Upstate Bioteehnology Inc., Lake Placid, N.Y. Rat brain PP-2A1 and PP-2A2 were kindly provided by Dr. S. Jaspers of University of Massachusetts. […] Phosphorylase and calmodulin were purchased from Sigma, St. Louis, Mo. […] Alkaline phosphatase-conjugated goat anti-mouse and anti-rabbit IgG were purchased from Bio-Rad, Hercules, Calif.
Unless otherwise stated, dephosphorylation of AD P-tau was carried out at 30° C. in 50 mM Tris, pH 7.0, 10 mM β-mecaptoethanol, 0.1 mg/ml BSA, 50 μg/ml AD P-tau and PP-1 PP-2A or PP-2B. The reaction was started by addition of enzyme and stopped by addition of 5 volumes of cold acetone. The precipitated protein samples were dissolved in sodium dodecyl sulfate-polyacrylamide gel electrophoresis (SDS-PAGE) sample buffer and heated at 95° C. for 4 min, followed by 10% SDS-PAGE. […] Antiserum 92e is a phosphorylation-independent antibody which recognizes both AD P-tau and normal tau.

PP-1 [1] = assay: Effect of effectors on dephosphorylation of AD P-tau by PP-1 (immunoblot); type: biochemical, rabbit; conditions: for Effect on dephosphorylation of AD P-tau by PP-1: 1.0 mM Mn2+ or 10 mM Mg2+ versus 1.0 mM EDTA, PHF-1 immunoblot (Ser-396)
Protocol: Unless otherwise stated, dephosphorylation of AD P-tau was carried out at 30° C. in 50 mM Tris, pH 7.0, 10 mM β-mecaptoethanol, 0.1 mg/ml BSA, 50 μg/ml AD P-tau and PP-1, PP-2B or PP-2C. In some experiments, several effectors were added in the reaction mixture (see Results section). The reaction was started by addition of the enzyme. After appropriate incubation times (see Figure legends), reactions were stopped by addition of 5 volumes of cold acetone to precipitate proteins. The precipitated protein samples were dissolved in SDS-PAGE sample buffer (60 mM Tris-HCl, […], 3% SDS, 5% β-mercaptoethanol, 10% glycerol and 0.05% bromophenol blue) and heated at 95° C. for 4 min, followed by 10% SDS-PAGE.

PP-2A1 [2] = target: T2, PP-2A1 (Rattus norvegicus, UniProt P63331); assay: Effect of Mn2+, Mg2+ and polylysine on dephosphorylation of AD P-tau by PP-2A1; type: biochemical; conditions: 2.0 mM MnCl2, 2.0 mM MgCl2 or 10 μM polylysine versus 1.0 mM EDTA; Tau-1 immunoblot
T2 construct: PP-2A1 and PP-2A2 were purified from rat brain basically as described by Cohen et al; tissue gift of Dr. S. Jaspers, University of Massachusetts; host or cells: rat brain
Source text: (§1) Phosphorylase, calmodulin, and poly-L-lysine (molecular weight 4,000-15,000) were purchased from Sigma, St. Louis, Mo. […] L. 1. Binder, University of Alabama, Birmingham, Ala.; A. Van de Voorde, Innogenetics, Industriepark Zwijinaarde, Belgium; and S. Greenberg, Burke Medical Research Institute, White Plains, N.Y., respectively. SMI33, SMI31, SMI34, goat anti-mouse IgG and peroxidase-anti-peroxidase complex were purchased from Sternberger Monoclonals Inc., Baltimore, Md. Alkaline phosphatase-conjugated goat anti-mouse and anti-rabbit IgG were purchased from Bio-Rad, Hercules, Calif.
(§2) In some experiments, Mn^2+ in the reaction mixture was replaced by other effectors (see Figure legends). In the reaction mixture for PP-2B, MnCl2 was substituted with-1.0 mM NiCl2, 1.0 mM CaCl2 and 1.0 μM calmodulin. The reaction was started by the addition of enzymes. After appropriate incubation times (see Figure legends), reactions were stopped by the addition of 5 volumes of cold acetone to precipitate proteins. Dephosphorylation was monitored by immunoblotting with the phosphorylation-dependent antibodies described below.
(§3) Res. Commun. […] Antibody AT8 was used at a concentration of 2.0 μg/ml. […] The intensity of immunostaining of-some blots with Tau-1 was scanned by using a Shimadzu dual-wavelength flying-spot scanner.

PP-1 [3] = assay: PP-1 activity with [32P]phosphorylase kinase as substrate; type: biochemical, rabbit; conditions: 1.0 mM Mn2+ or 10 mM Mg2+
Protocol: (§4) For PP-2B and PP-2C activities, MnCl2 was substituted by 1.0 mM CaCl2 and 10 μM calmodulin, and 10 mM MgCl2, respectively.

PP-2C = PP-2C activity with [32P]phosphorylase kinase as substrate; type: biochemical, bovine; conditions: no activity detected in the absence of Mg2+ or Mn2+
Protocol: as §4

PP-2A2 [4] = target: T3, PP-2A2 (Rattus norvegicus, UniProt P63331); assay: Effect of Mn2+, Mg2+ and polylysine on dephosphorylation of AD P-tau by PP-2A2; type: biochemical; design: PP-2A1 and PP-2A2 were purified from rat brain basically as described by Cohen et al; tissue gift of Dr. S. Jaspers, University of Massachusetts; host or cells: rat brain; conditions: 2.0 mM MnCl2, 2.0 mM MgCl2 or 10 μM polylysine versus 1.0 mM EDTA; Tau-1 immunoblot
Source text: as §1, §2, §3

PP-2A = assay: Effect of effectors on dephosphorylation of AD P-tau by PP-2A (immunoblot); type: biochemical, rat
Source text: as §1, §2, §3

PP-2A1 [5] = target: T2, PP-2A1; assay: PP-2A1 activity with [32P]phosphorylase as substrate; type: biochemical; conditions: data not shown
PP-2A2 [6] = target: T3, PP-2A2; conditions: data not shown

T2 sequence (P63331 whole entry): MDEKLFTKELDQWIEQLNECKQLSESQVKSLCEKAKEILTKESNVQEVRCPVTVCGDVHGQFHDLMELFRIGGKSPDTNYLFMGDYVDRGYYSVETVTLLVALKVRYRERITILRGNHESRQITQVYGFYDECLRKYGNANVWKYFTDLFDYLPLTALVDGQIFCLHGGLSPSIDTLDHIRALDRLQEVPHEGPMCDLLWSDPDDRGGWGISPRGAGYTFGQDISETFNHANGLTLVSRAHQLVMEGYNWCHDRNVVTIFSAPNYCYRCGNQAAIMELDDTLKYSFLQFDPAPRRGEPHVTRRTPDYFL
T2 sequence (Q5XI34 1-589 partner): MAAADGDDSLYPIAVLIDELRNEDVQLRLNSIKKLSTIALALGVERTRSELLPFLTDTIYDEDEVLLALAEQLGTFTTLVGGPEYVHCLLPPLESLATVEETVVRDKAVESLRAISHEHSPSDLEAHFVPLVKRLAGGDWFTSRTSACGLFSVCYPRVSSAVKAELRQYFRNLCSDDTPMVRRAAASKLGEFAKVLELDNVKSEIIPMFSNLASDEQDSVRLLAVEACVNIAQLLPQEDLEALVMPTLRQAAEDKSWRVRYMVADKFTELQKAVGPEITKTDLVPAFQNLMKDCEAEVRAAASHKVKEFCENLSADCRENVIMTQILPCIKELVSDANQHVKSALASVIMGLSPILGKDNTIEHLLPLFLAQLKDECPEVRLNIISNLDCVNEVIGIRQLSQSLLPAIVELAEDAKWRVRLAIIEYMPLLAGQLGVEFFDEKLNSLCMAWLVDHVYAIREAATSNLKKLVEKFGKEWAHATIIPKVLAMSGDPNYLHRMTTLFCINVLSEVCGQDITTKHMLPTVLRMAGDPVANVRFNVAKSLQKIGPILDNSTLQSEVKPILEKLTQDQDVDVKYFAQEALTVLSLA
T2 sequence (P36876 whole entry partner): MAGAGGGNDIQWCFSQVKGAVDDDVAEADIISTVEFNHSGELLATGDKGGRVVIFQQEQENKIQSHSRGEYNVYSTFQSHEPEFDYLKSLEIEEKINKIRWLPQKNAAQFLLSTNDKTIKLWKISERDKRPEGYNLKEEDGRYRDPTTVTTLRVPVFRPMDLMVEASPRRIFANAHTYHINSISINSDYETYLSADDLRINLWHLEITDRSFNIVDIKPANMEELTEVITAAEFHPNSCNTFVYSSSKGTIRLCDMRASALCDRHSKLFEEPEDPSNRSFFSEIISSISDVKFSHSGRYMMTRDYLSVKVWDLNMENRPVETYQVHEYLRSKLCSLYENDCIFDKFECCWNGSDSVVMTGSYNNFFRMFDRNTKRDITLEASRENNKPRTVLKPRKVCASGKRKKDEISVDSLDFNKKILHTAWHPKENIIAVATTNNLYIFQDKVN
T3 sequence (P63331 whole entry): as the sequence (P63331 whole entry) above
T3 sequence (Q5XI34 1-589 partner): as the sequence (Q5XI34 1-589 partner) above

Row | Compound | Effect on dephosphorylation of AD P-tau by PP-1 (PP-1 [1]) | Activity of PP-2B towards AD P-tau with divalent cation in the presence of Ca2+ and calmodulin (PP-2B) | Effect on activity of PP-2A1 towards AD P-tau (PP-2A1 [2]) | Effect on PP-1 activity with [32P]phosphorylase kinase as substrate (PP-1 [3]) | Metal dependence of PP-2C activity with [32P]phosphorylase kinase as substrate (PP-2C) | Effect on activity of PP-2A2 towards AD P-tau (PP-2A2 [4]) | Effect on AD P-tau dephosphorylation by PP-2B (PP-2B) | Magnitude of dephosphorylation of AD P-tau by PP-2B with the cation alone compared to inclusion of Ca2+ and calmodulin (PP-2B) | Concentration of metal ion for maximal dephosphorylation of AD P-tau by PP-2B (PP-2B) [µM] | Concentration of metal ion that activated the dephosphorylation of AD P-tau by PP-2B (PP-2B) [FM] | Effect on PP-2A1 activity with [32P]phosphorylase as substrate (PP-2A1 [5]) | further results
1 | [Ca+2] [Ca^2+] |  |  |  |  |  |  |  |  |  |  |  | Dephosphorylation of tau by PP-2B in the presence of Ca2+ and calmodulin alone (PP-2B; 1.0 mM CaCl2 and 1.0 μM calmodulin, no other cation): no apparent dephosphorylation
2 | [Mg+2] [Mg^2+, reference compound] | inhibited | lower | no detectable effect | inhibited | dependent | no detectable effect |  |  |  |  |  | 
3 | [Mn+2] [Mn^2+, manganese] | strongly activated | lower | markedly stimulated | activated | dependent | markedly stimulated | ↑ ↑ | lower | 100 | 10 | almost no effect | Effect on AD P-tau dephosphorylation by PP-1 (PP-1 [1]): ↑ ↑; Concentration at which activation of AD P-tau dephosphorylation by PP-1 reached maximum (PP-1 [1]; data not shown): about 100 μM; Concentration at which activation of AD P-tau dephosphorylation by PP-1 was observed (PP-1 [1]; data not shown): 10 µM; Effect on AD P-tau dephosphorylation by PP-2A (PP-2A): ↑ ↑; Effect on PP-2A2 activity with [32P]phosphorylase as substrate (PP-2A2 [6]): stimulated PP-2A2 much more strongly than polylysine did
4 | [Ni+2] [Ni^2+] |  | highest activity |  |  |  |  | ↑ ↑ | lower | 100 | 10 |  | 
5 | C=C1[C@@H](O)[C@@H]2O[C@]3(CC[C@H](/C=C/[C@@H](C)[C@@H]4CC(C)=C[C@@]5(O[C@H](C[C@@](C)(O)C(=O)O)CC[C@H]5O)O4)O3)CC[C@H]2O[C@@H]1[C@@H](O)C[C@H](C)[C@H]1O[C@@]2(CCCCO2)CC[C@H]1C [okadaic acid, reference compound] |  |  |  |  |  |  |  |  |  |  |  | Unmasking of Tau-1 epitope of AD P-tau by PP-2A in the presence of the inhibitor (PP-2A; 1.0 μM okadaic acid, 5.0 U/ml PP-2A2, 30° C., 60 min): did not unmask Tau-1 epitope
6 | poly-L-lysine [Polylysine] |  |  | strongly activated |  |  | only slightly activated |  |  |  |  | slightly stimulated | 
